In BindingDB's records for patent US20240327385 (2024):

Molecular target: T1, Renin (Homo sapiens, UniProt P00797)
T1 sequence (P00797 whole entry): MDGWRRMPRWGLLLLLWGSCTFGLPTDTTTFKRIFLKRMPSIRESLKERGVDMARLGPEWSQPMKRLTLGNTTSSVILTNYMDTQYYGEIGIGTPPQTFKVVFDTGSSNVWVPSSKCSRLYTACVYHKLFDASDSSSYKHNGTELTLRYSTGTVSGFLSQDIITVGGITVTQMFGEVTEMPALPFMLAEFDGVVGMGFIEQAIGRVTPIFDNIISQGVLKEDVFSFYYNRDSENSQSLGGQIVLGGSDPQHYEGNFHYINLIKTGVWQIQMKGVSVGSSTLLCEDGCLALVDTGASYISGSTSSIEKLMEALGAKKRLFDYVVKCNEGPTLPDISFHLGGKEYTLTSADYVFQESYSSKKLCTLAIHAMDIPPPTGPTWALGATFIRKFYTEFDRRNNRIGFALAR
Assay: Inhibitory Effects on Human Renin Activity Assay
Protocol: Briefly, human recombinant renin (from the kit) was incubated with the compound of the disclosure or buffer for 30 min at 37° C. before substrate addition. Fluorescence intensity was measured at 530 nm after an incubation of 15 min at 37° C. Data was analyzed by Prism and fitted into a sigmodal curve for IC50 calculation.

For `CO[C@H]1C[C@H](Nc2cc(C3CC3)cnc2C(=O)N(CC(C)C)C2CNCC(C(=O)N3CCOC(C)(C)C3)C2)C1` (stereo partly specified) [US20240327385, Example 8], the IC50 was 1.6 nM.
